Measurements taken from ChEMBL document CHEMBL5236643, “Discovery and characterization of orally bioavailable 4-chloro-6-fluoroisophthalamides as covalent PPARG inverse-agonists” (Bioorg Med Chem, 2023).
≈ marks a conversion by molar mass, not a printed value. Calls of active or inactive are those of the source. The rule behind the calls is not given here.

Experiments:
[1] = Antiproliferative activity against human UM-UC-9 assessed as inhibition of cell proliferation measured after 7 days by IncuCyte live-cell imaging assay; conditions: UM-UC-9, 168 h
[2] = Antiproliferative activity against human UM-UC-9 assessed as inhibition of cell proliferation by measuring maximum efficacy after 7 days by IncuCyte live-cell imaging assay; assay type: functional; conditions: UM-UC-9, 168 h, time 7 day
[3] = Microsomal stability in human liver microsomes assessed as intrinsic clearance at 1 uM measured upto 60 mins in presence of NADPH by HPLC-MS/MS analysis; assay type: ADME, Microsome; conditions: read-out: CLH (converted)
[4] = Stability in rat hepatocytes assessed as intrinsic clearance at 1 uM incubated for 1 hr by HPLC-MS/MS analysis; assay type: ADME, cell-based, Hepatocyte; conditions: read-out: CLH (converted)
[5] = Stability of compound in GSH at pH 7.4 assessed as parent compound remaining at 10 mM and measured after 1 hrs by HPLC-UV analysis; assay type: physicochemical; conditions: GSH solution, read-out: Stability
[6] = Stability of compound in GSH at pH 7.4 assessed as parent compound remaining at 10 mM and measured after 2 hrs by HPLC-UV analysis; assay type: physicochemical; conditions: GSH solution, read-out: Stability
[7] = Stability of compound in GSH at pH 7.4 assessed as parent compound remaining at 10 mM and measured after 4 hrs by HPLC-UV analysis; assay type: physicochemical; conditions: GSH solution, read-out: Stability
[8] = Stability of compound in GSH at pH 7.4 assessed as parent compound remaining at 10 mM and measured after 24 hrs by HPLC-UV analysis; assay type: physicochemical; conditions: GSH solution, read-out: Stability
[9] = Stability of compound in cysteine at pH 7.4 assessed as parent compound remaining at 10 mM and measured after 1 hrs by HPLC-UV analysis; assay type: physicochemical; conditions: cysteine solution, read-out: Stability
[10] = Stability of compound in cysteine at pH 7.4 assessed as parent compound remaining at 10 mM and measured after 2 hrs by HPLC-UV analysis; assay type: physicochemical; conditions: cysteine solution, read-out: Stability
[11] = Stability of compound in cysteine at pH 7.4 assessed as parent compound remaining at 10 mM and measured after 4 hrs by HPLC-UV analysis; assay type: physicochemical; conditions: cysteine solution, read-out: Stability
[12] = Stability of compound in cysteine at pH 7.4 assessed as parent compound remaining at 10 mM and measured after 24 hrs by HPLC-UV analysis; assay type: physicochemical; conditions: cysteine solution, read-out: Stability
[13] = Apparent permeability across basolateral to apical side in human Caco-2 cells at 2 uM incubated for 2 hrs by LC-MS/MS analysis; assay type: ADME, cell-based
[14] = Thermodynamic solubility of compound at pH 6.5 PBS buffer; assay type: physicochemical; conditions: read-out: Therm_solubility
[15] = molecular target: T1, Nuclear receptor subfamily 1 group I member 2 (Homo sapiens, UniProt O75469); assay: Transactivation of human PXR in human HepG2 cells co-expressing luciferase gene under control of CYP3A4 promoter assessed as increase in luciferase activity incubated for 24 hrs by luminescence based analysis; assay type: ADME, cell-based
T1 sequence (O75469 whole entry): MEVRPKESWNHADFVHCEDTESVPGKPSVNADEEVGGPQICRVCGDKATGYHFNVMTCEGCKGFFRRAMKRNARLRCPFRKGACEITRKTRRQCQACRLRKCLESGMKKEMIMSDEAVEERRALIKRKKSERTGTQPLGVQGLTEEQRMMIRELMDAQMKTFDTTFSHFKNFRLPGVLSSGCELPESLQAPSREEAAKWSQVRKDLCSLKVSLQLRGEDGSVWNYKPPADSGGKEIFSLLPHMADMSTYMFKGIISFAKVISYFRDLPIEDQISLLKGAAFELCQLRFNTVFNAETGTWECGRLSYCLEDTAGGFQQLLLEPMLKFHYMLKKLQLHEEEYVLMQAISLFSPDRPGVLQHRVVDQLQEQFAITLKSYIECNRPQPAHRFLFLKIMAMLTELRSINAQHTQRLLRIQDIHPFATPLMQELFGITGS

[16] = AUClast in Wistar rat at 0.3 mg/kg,iv measured upto 24 hrs by HPLC-MS/MS analysis; assay type: ADME, organism-based; design: dose 0.3 mg/kg, time < 24 hrs, route iv; conditions: in vivo
[17] = Clearance in Wistar rat at 0.3 mg/kg,iv measured upto 24 hrs by HPLC-MS/MS analysis; assay type: ADME, organism-based; conditions: in vivo
[18] = Volume of distribution at steady state in Wistar rat at 0.3 mg/kg,iv measured upto 24 hrs by HPLC-MS/MS analysis; assay type: ADME, organism-based; conditions: in vivo, read-out: Vdss
[19] = Half life in Wistar rat at 0.3 mg/kg,iv measured upto 24 hrs by HPLC-MS/MS analysis; assay type: ADME, organism-based; conditions: in vivo
[20] = AUClast in NMRI-nu/nu mouse at 100 mg/kg,po measured upto 24 hrs by HPLC-MS/MS analysis; assay type: ADME, organism-based; design: time < 24 hrs, dose 100 mg/kg, route po; conditions: in vivo
[21] = Cmax in NMRI-nu/nu mouse at 100 mg/kg,po measured upto 24 hrs by HPLC-MS/MS analysis; assay type: ADME, organism-based; design: time < 24 hrs, dose 100 mg/kg, route po; conditions: in vivo
[22] = Tmax in NMRI-nu/nu mouse at 100 mg/kg,po measured upto 24 hrs by HPLC-MS/MS analysis; assay type: ADME, organism-based; conditions: in vivo
[23] = molecular target: T2, Peroxisome proliferator-activated receptor gamma (Mus musculus) (UniProt P37238); assay: Inverse agonist activity at PPARgamma in NMRI-nu/nu mouse assessed as reduction in Fabp4 mRNA expression in adipose tissue at 100 mg/kg for 3 days and measured 6 hrs last dose by qPCR analysis; assay type: organism-based; conditions: time 3.0 day
T2 sequence (whole entry): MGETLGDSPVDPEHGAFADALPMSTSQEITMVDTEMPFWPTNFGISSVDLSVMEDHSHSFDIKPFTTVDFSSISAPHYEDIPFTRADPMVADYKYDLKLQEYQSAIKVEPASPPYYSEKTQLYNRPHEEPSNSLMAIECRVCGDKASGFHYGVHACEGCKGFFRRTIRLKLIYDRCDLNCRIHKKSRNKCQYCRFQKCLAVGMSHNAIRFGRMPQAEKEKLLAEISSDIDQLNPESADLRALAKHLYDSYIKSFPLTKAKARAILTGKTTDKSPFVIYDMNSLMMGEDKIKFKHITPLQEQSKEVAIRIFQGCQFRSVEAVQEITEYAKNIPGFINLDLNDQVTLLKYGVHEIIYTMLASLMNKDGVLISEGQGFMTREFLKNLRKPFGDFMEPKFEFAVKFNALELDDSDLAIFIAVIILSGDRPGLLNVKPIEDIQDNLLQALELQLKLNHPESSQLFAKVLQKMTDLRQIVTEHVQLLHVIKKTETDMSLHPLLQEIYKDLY

[24] = molecular target: T2, Peroxisome proliferator-activated receptor gamma (Mus musculus); assay: Inverse agonist activity at PPARgamma in NMRI-nu/nu mouse assessed as reduction in Fabp4 mRNA expression in adipose tissue at 50 mg/kg for 3 days and measured 6 hrs last dose by qPCR analysis; assay type: organism-based; conditions: time 3.0 day
[25] = molecular target: T2, Peroxisome proliferator-activated receptor gamma (Mus musculus); assay: Inverse agonist activity at PPARgamma in NMRI-nu/nu mouse assessed as fold reduction in Fabp4 mRNA expression in adipose tissue at 50 mg/kg for 3 days and measured 15 hrs last dose by qPCR analysis; assay type: organism-based; conditions: filed as inverse agonist, time 3.0 day
[26] = molecular target: T2, Peroxisome proliferator-activated receptor gamma (Mus musculus); assay: Inverse agonist activity at PPARgamma in NMRI-nu/nu mouse assessed as decrease in Acaab1 mRNA expression in adipose tissue at 50 mg/kg for 3 days and measured upto 15 hrs last dose by qPCR analysis; assay type: organism-based; conditions: filed as inverse agonist, time 3.0 day
[27] = molecular target: T3, Peroxisome proliferator-activated receptor alpha (Homo sapiens, UniProt Q07869); assay: Agonist activity at human PPARalpha expressed in CHO cells co-expressing GAL4-NHR-LBD assessed as transcriptional activation preincubated for 6 hrs followed by luciferin addition by luminescence method; assay type: cell-based
T3 sequence (Q07869 whole entry): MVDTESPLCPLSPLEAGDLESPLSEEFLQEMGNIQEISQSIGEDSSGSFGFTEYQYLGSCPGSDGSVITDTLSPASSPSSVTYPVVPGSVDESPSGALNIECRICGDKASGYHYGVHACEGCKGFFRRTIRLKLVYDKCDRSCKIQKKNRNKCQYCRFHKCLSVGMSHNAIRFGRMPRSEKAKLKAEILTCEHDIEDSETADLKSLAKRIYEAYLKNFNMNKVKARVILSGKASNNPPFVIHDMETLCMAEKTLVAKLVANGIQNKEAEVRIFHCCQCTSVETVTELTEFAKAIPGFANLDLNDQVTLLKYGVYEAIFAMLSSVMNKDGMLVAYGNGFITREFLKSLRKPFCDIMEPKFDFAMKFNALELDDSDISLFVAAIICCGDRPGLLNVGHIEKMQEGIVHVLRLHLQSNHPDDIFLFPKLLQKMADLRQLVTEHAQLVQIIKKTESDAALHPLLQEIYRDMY

[28] = molecular target: T4, Peroxisome proliferator-activated receptor alpha (Homo sapiens) (UniProt Q07869); assay: Agonist activity at human PPARalpha expressed in CHO cells co-expressing GAL4-NHR-LBD assessed as transcriptional activation by measuring maximum efficacy preincubated for 6 hrs followed by luciferin addition by luminescence method; assay type: cell-based; conditions: filed as agonist
T4 sequence (whole entry): T3 sequence (Q07869 whole entry)

[29] = molecular target: T5, Peroxisome proliferator-activated receptor delta (Homo sapiens, UniProt Q03181); assay: Inverse agonist activity at human PPARdelta expressed in CHO cells co-expressing GAL4-NHR-LBD assessed as transcriptional repression preincubated for 6 hrs followed by luciferin addition by luminescence method; assay type: cell-based
T5 sequence (Q03181 whole entry): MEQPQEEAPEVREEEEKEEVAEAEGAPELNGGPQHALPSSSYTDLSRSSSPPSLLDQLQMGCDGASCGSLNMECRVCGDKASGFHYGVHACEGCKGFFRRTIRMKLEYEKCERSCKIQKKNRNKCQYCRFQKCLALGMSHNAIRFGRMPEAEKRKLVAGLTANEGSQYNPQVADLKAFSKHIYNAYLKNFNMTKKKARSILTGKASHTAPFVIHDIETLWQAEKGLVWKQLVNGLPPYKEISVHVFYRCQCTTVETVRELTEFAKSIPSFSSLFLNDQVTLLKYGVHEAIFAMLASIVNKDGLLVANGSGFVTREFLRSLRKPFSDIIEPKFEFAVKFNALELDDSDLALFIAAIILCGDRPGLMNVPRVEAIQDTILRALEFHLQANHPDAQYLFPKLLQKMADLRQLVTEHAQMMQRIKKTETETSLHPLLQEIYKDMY

[30] = AUClast in Wistar rat at 1 mg/kg,iv measured upto 24 hrs by HPLC-MS/MS analysis; assay type: ADME, organism-based; design: time < 24 hrs, dose 1 mg/kg, route iv; conditions: in vivo
[31] = Clearance in Wistar rat at 1 mg/kg,iv measured upto 24 hrs by HPLC-MS/MS analysis; assay type: ADME, organism-based; conditions: in vivo
[32] = Volume of distribution at steady state in Wistar rat at 1 mg/kg,iv measured upto 24 hrs by HPLC-MS/MS analysis; assay type: ADME, organism-based; conditions: in vivo, read-out: Vdss
[33] = Half life in Wistar rat at 1 mg/kg,iv measured upto 24 hrs by HPLC-MS/MS analysis; assay type: ADME, organism-based; conditions: in vivo
[34] = molecular target: T2, Peroxisome proliferator-activated receptor gamma (Mus musculus); assay: Inverse agonist activity at PPARgamma in NMRI-nu/nu mouse assessed as decrease in Acaab1 mRNA expression in adipose tissue at 100 mg/kg for 3 days and measured upto 15 hrs last dose by qPCR analysis; assay type: organism-based; conditions: filed as inverse agonist, time 3.0 day

SMILES | IC50 [1] | Emax [2] | CLint scaled at 1 µM [3] | CLint scaled at 1 µM [4] | remaining at 1 h, 10000 µM [5] | remaining at 2 h, 10000 µM [6] | remaining at 4 h, 10000 µM [7] | remaining at 24 h, 10000 µM [8] | remaining at 1 h, 10000 µM [9] | remaining at 2 h, 10000 µM [10] | remaining at 4 h, 10000 µM [11] | remaining at 24 h, 10000 µM [12] | Papp B→A at 2 h, 2 µM [13] | solubility thermodynamic [14] | IC50 [15] | AUC(0-t) at 24 h [20] | Cmax [21] | Tmax [22] | Activity [23] | further results
Cc1cc(OC(F)F)ccc1NC(=O)c1cc(C(=O)NCc2ccc(F)cc2)c(F)cc1Cl | 0.0194 µM | 55% | 0.76 L/h/kg | 1.73 L/h/kg | 74.8% | 56.4% | 46.5% | 32% | 93% | 77.8% | 71% | 51.6% | 238 nm/s | 0.1 µg/mL (≈ 0.208 µM) | 14.7 µM | 12 µg·h/mL | 2.1 µM | 7 h | inactive | AUClast [16]: 1.6 kg·h/L; clearance [17]: 0.62 L/h/kg; Vd [18]: 2.7 L/kg; half-life [19]: 4.8 h; Activity [24]: inactive; Activity [25]: Active; Activity [26]: Active
O=C(Nc1ccncc1)c1cc([N+](=O)[O-])ccc1Cl | – | – | – | – | – | – | – | – | – | – | – | – | – | – | – | – | – | – | – | IC50 [27]: 2.95 µM; Emax [28]: 289%; IC50 [29]: > 5 µM
CC(C)(O)c1ccc(NC(=O)c2cc(C(=O)NCc3ccc(F)c(F)c3)c(F)cc2Cl)cc1 | 0.0404 µM | 71% | 0.93 L/h/kg | 1.76 L/h/kg | 100% | 100% | 100% | 100% | 100% | 100% | 100% | 100% | 171 nm/s | 6.55 µg/mL (≈ 13.7 µM) | > 49.8 µM | 1.9 µg·h/mL | 0.0032 µM | 1 h | inactive | AUClast [30]: 0.18 kg·h/L; clearance [31]: 5.6 L/h/kg; Vd [32]: 1.8 L/kg; half-life [33]: 0.19 h; Activity [34]: Active
